Tested on: 885724-159-R-J1-PDC KRAS PDC multicell spheroid viability
Experiment: Anticancer human tumor 885724-159-R-J1-PDC patient-derived pancreatic adenocarcinoma cell line growth inhibition [KRAS2]
Details: for IC50: curve of first compound; for viability, T/C: stronger effect = lower value
Source text: Multicellular complex tumor spheroid response to RAS pathway inhibitors in combination with a targeted agents in patient-derived cell lines with oncogenic KRAS variants from multiple cancer types
A high-throughput screen of multi-cell type tumor spheroids was designed to identify active combinations of targeted small molecules and KRAS pathway inhibitors. Complex spheroids include a stromal component modeled by human endothelial cells (HUVEC) and fibroblasts modeled by human mesenchymal stem cells (MSCs). The concentration ranges selected for each drug and investigational agent were based upon clinically achievable concentrations if the clinical Cmax of the agent was known.
Compounds. The drugs and investigational agents: BI-3406 (NSC825286), BAY-293 (NSC824723), batoprotafib (TNO155; NSC825523), sotorasib (AMG 510; NSC818433), MRTX1257 (NSC819558), elimusertib (BAY 1895344; NSC800525), molibresib (GSK525762; NSC774829), temuterkib (LY3214996; NSC803410), venetoclax (NSC766270), alisertib (NSC759677), olaparib (NSC753686), talazoparib (NSC767125), erdafitinib (NSC781556), ipatasertib (NSC767898), cabozantinib (NSC761068), nintedanib (NSC756659), abemaciclib (NSC768073), docetaxel (NSC628503), trametinib (NSC758246), and sapanisertib (NSC764658) were obtained from the National Cancer Institute (NCI) Developmental Therapeutics Program Chemical Repository. The FDA-approved anticancer drug set is available from the Developmental Therapeutics Program. […] The stock solutions were prepared in dimethyl sulfoxide (DMSO, Sigma-Aldrich, St. Louis, MO, cat. D2650) at 800-fold the tested concentration and stored at -70 degrees C prior to their use. All drugs and investigational agents were tested over a range starting from a high concentration at or near the clinical Cmax and decreasing in half-log increments. If the clinical Cmax for an agent had not been determined, the highest concentration tested was 10 microM.
Cell Culture. All cells were maintained in an incubator at 37 degrees C and 5% CO2 with 95% humidity. The PDC lines were cultured according to standard operating procedures established by the NCI PDMR (https://pdmr.cancer.gov/sops/default.htm). Briefly, all PDCs were thawed and cultured in Matrigel-coated flasks prepared with a working solution of 1X Ham's F-12 nutrient mix, without supplementation (Invitrogen, Waltham, MA, cat. 11765054), 100 U/mL penicillin-streptomycin (Invitrogen, cat. 15140122), and 2.5% Matrigel (Corning Inc., Corning, NY, cat. 354248) for the first three passages. All PDCs were cultured in complete DMEM/F-12 media containing advanced DMEM/F-12 (Invitrogen, cat. 12634028), 4.9% defined fetal bovine serum, heat inactivated (HyClone Laboratories Inc., Logan, UT, cat. SH30070.03HI), 389 ng/mL hydrocortisone (Sigma-Aldrich, cat. H4001), 9.7 ng/mL human EGF recombinant protein (Invitrogen, cat. PHG0313), 23.4 microg/mL adenine (Sigma-Aldrich, cat. A2786), 97.3 U/mL penicillin-streptomycin (Invitrogen, cat. 15140122), 1.9 mM L-glutamine (Invitrogen, cat. 25030081), and 9.7 microM Y-27632 dihydrochloride (Tocris Bioscience, Bristol, United Kingdom, cat. 1254). The PDCs were cultured in complete DMEM/F12 media without 9.7 microM Y-27632 dihydrochloride for at least two passages prior to the screen. The established cell line HOP-62 was cultured in RPMI 1640 medium, HEPES (Invitrogen, cat. 22400105) with 10% defined fetal bovine serum (HyClone Laboratories Inc., cat. SH30070.03) and 2 mM L-glutamine (Invitrogen, cat. 25030081). The pooled donor HUVEC were cultured in endothelial cell growth medium 2 (PromoCell, Heidelberg, Germany, cat. C-22011) and the hMSC were cultured in mesenchymal stem cell growth medium 2 (PromoCell, cat. C-28009). For all experiments, HUVEC and hMSC were used at passages </=5, while the malignant cell lines were used at passages </=15. […]

[1] = second compound 0.0316 µM, first compound 0.01 µM
[2] = second compound 0.0316 µM, first compound 0.0316 µM
[3] = second compound 0.0316 µM, first compound 0.1 µM
[4] = second compound 0.0316 µM, first compound 0.316 µM
[5] = second compound 0.0316 µM, first compound 1 µM
[6] = second compound 0.0316 µM, first compound 3.16 µM
[7] = second compound 0.1 µM, first compound 0.01 µM
[8] = second compound 0.1 µM, first compound 0.0316 µM
[9] = second compound 0.1 µM, first compound 0.1 µM
[10] = second compound 0.1 µM, first compound 0.316 µM
[11] = second compound 0.1 µM, first compound 1 µM
[12] = second compound 0.1 µM, first compound 3.16 µM
[13] = second compound 0.316 µM, first compound 0.01 µM
[14] = second compound 0.316 µM, first compound 0.0316 µM
[15] = second compound 0.316 µM, first compound 0.1 µM
[16] = second compound 0.316 µM, first compound 0.316 µM
[17] = second compound 0.316 µM, first compound 1 µM
[18] = second compound 0.316 µM, first compound 3.16 µM
[19] = second compound 1 µM, first compound 0.01 µM
[20] = second compound 1 µM, first compound 0.0316 µM
[21] = second compound 1 µM, first compound 0.1 µM
[22] = second compound 1 µM, first compound 0.316 µM
[23] = second compound 1 µM, first compound 1 µM
[24] = second compound 1 µM, first compound 3.16 µM
[25] = second compound 3.16 µM, first compound 0.01 µM
[26] = second compound 3.16 µM, first compound 0.0316 µM
[27] = second compound 3.16 µM, first compound 0.1 µM
[28] = second compound 3.16 µM, first compound 0.316 µM
[29] = second compound 3.16 µM, first compound 1 µM
[30] = second compound 3.16 µM, first compound 3.16 µM
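Note: spheroids exposed to agents for 7 days before readout.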

Structure (SMILES)	IC50 (second compound 0.0316 µM)	IC50 (second compound 0.1 µM)	IC50 (second compound 0.316 µM)	IC50 (second compound 1 µM)	IC50 (second compound 3.16 µM)	viability, T/C [1]	viability, T/C [2]	viability, T/C [3]	viability, T/C [4]	viability, T/C [5]	viability, T/C [6]	viability, T/C [7]	viability, T/C [8]	viability, T/C [9]	viability, T/C [14]	viability, T/C [15]	viability, T/C [20]	viability, T/C [21]	viability, T/C [26]	viability, T/C [27]	further results
CC(=O)OC12COC1CC(O)C1(C)C(=O)C(O)C3=C(C)C(OC(=O)C(O)C(NC(=O)OC(C)(C)C)c4ccccc4)CC(O)(C(OC(=O)c4ccccc4)C21)C3(C)C (stereo not given) + C=CC(=O)N1CCN(c2nc(OCC3CCCN3C)nc3c2CCN(c2cccc4cccc(C)c24)C3)CC1CC#N	> 3.16 µM	> 3.16 µM	> 3.16 µM	> 3.16 µM	> 3.16 µM	86.9%	95.8%	102%	101%	110%	109%	87.5%	94.9%	97%	97.5%	92.8%	86.9%	91.8%	100%	99.6%	viability, T/C [10]: 106%; viability, T/C [11]: 116%; viability, T/C [12]: 115%; viability, T/C [13]: 85.5%; viability, T/C [16]: 101%; viability, T/C [17]: 115%; viability, T/C [18]: 103%; viability, T/C [19]: 82.6%; viability, T/C [22]: 96.7%; viability, T/C [23]: 99.2%; viability, T/C [24]: 96.7%; viability, T/C [25]: 87.2%; viability, T/C [28]: 105%; viability, T/C [29]: 111%; viability, T/C [30]: 115%
CN(C)C/C=C/C(=O)Nc1cc2c(Nc3ccc(F)c(Cl)c3)ncnc2cc1O[C@H]1CCOC1 + C=CC(=O)N1CCN(c2nc(OCC3CCCN3C)nc3c2CCN(c2cccc4cccc(C)c24)C3)CC1CC#N	> 0.1 µM	> 0.1 µM	> 0.1 µM	> 0.1 µM	0.00157 µM	94.5%	89.1%	80.3%				83.1%	77.4%	72%	72%	65.7%	68.7%	63.9%	36.4%	37.7%	viability, T/C (second compound 0.0316 µM, first compound 0.000316 µM): 116%; viability, T/C (second compound 0.0316 µM, first compound 0.001 µM): 112%; viability, T/C (second compound 0.0316 µM, first compound 0.00316 µM): 98.5%; viability, T/C (second compound 0.1 µM, first compound 0.000316 µM): 109%; viability, T/C (second compound 0.1 µM, first compound 0.001 µM): 101%; viability, T/C (second compound 0.1 µM, first compound 0.00316 µM): 96.5%; viability, T/C (second compound 0.316 µM, first compound 0.000316 µM): 105%; viability, T/C (second compound 0.316 µM, first compound 0.001 µM): 106%; viability, T/C (second compound 0.316 µM, first compound 0.00316 µM): 92.4%; viability, T/C [13]: 84.1%; viability, T/C (second compound 1 µM, first compound 0.000316 µM): 95%; viability, T/C (second compound 1 µM, first compound 0.001 µM): 100%; viability, T/C (second compound 1 µM, first compound 0.00316 µM): 86.8%; viability, T/C [19]: 78.4%; viability, T/C (second compound 3.16 µM, first compound 0.000316 µM): 61.5%; viability, T/C (second compound 3.16 µM, first compound 0.001 µM): 55.9%; viability, T/C (second compound 3.16 µM, first compound 0.00316 µM): 40.8%; viability, T/C [25]: 37.7%
O=C(c1cc(Cc2n[nH]c(=O)c3ccccc23)ccc1F)N1CCN(C(=O)C2CC2)CC1 + C=CC(=O)N1CCN(c2nc(OCC3CCCN3C)nc3c2CCN(c2cccc4cccc(C)c24)C3)CC1CC#N	> 10 µM	> 10 µM	> 10 µM	> 10 µM	4.94 µM		127%	120%	119%	119%	112%		122%	118%	111%	115%	112%	116%	66.9%	65%	viability, T/C (second compound 0.0316 µM, first compound 10 µM): 96.7%; viability, T/C [10]: 117%; viability, T/C [11]: 109%; viability, T/C [12]: 104%; viability, T/C (second compound 0.1 µM, first compound 10 µM): 93%; viability, T/C [16]: 113%; viability, T/C [17]: 108%; viability, T/C [18]: 99%; viability, T/C (second compound 0.316 µM, first compound 10 µM): 101%; viability, T/C [22]: 106%; viability, T/C [23]: 108%; viability, T/C [24]: 108%; viability, T/C (second compound 1 µM, first compound 10 µM): 89%; viability, T/C [28]: 60.5%; viability, T/C [29]: 58%; viability, T/C [30]: 58.3%; viability, T/C (second compound 3.16 µM, first compound 10 µM): 40.8%
